Values quoted from earlier work, collected in patent publication US7410699B2, “Finely particulate composite containing carbon compound encapsulated in a polymer micelle of a block copolymer” (Japan Science and Technology Agency, priority 2003, dated 2008).

Details: Journal of Colloid and Interface Science, 263, (2003), 1-3

c12c3c4c5c1c1c6c7c2c2c8c3c3c9c4c4c%10c5c5c1c1c6c6c%11c7c2c2c7c8c3c3c8c9c4c4c9c%10c5c5c1c1c6c6c%11c2c2c7c3c3c8c4c4c9c5c1c1c6c2c3c41 [fullerene]
water-solubility (amount of solubilized fullerene): 0.021 mg/mL
